Values joined by “and” are separate entries in the source; they are usually repeats but may differ in a detail not shown here. Identical values can stand only once. Inconclusive results and toxic doses are left out. How the source made its calls: active means survival T/C of 150% or more; inactive means T/C below 125% in these data.
Tested on: CD2F1 mice, L1210 leukemia ip, survival T/C
Test: NCI In Vivo Anticancer Drug Screen. Data for tumor model L1210 Leukemia (intraperitoneal) in CD2F1 (CDF1) mice
Details: higher = longer survival
Procedure, shortened: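 Ratio T/C, where T is the treated-group value and C the vehicle-dosed control value, from mice implanted with a transplantable tumor.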

[1] = endpoint: mean survival time, dose: 100.0 mg/kg/injection, schedule: Q04DX002 (ip), vehicle: saline with Tween-80
[2] = endpoint: mean survival time, dose: 200.0 mg/kg/injection, schedule: Q04DX002 (ip), vehicle: saline with Tween-80
[3] = endpoint: mean survival time, dose: 400.0 mg/kg/injection, schedule: Q04DX002 (ip), vehicle: saline with Tween-80
[4] = endpoint: mean survival time, dose: 100.0 mg/kg/injection, schedule: Q04DX003 (ip), vehicle: saline with Tween-80
[5] = endpoint: mean survival time, dose: 200.0 mg/kg/injection, schedule: Q04DX003 (ip), vehicle: saline with Tween-80
[6] = endpoint: mean survival time, dose: 400.0 mg/kg/injection, schedule: Q04DX003 (ip), vehicle: saline with Tween-80
[7] = endpoint: mean survival time, dose: 100.0 mg/kg/injection, schedule: Q01DX009 (ip), vehicle: saline with Tween-80
[8] = endpoint: mean survival time, dose: 200.0 mg/kg/injection, schedule: Q01DX009 (ip), vehicle: saline with Tween-80
[9] = endpoint: mean survival time, dose: 400.0 mg/kg/injection, schedule: Q01DX009 (ip), vehicle: saline with Tween-80

Measured: T/C

SCc1c(Cl)c(Cl)c(Cl)c(Cl)c1Cl
inactive: [1] 94 % of control | [2] 87 % of control | [3] 97 % of control

CCOC(=O)CC(Cc1cc(OC)ccc1OC)(C(C)=O)C(C)=O
inactive: endpoint: mean survival time, dose: 12.5 mg/kg/injection, schedule: Q01DX009 (ip), vehicle: water 100 % of control | endpoint: mean survival time, dose: 25.0 mg/kg/injection, schedule: Q01DX009 (ip), vehicle: water 110 % of control | endpoint: mean survival time, dose: 50.0 mg/kg/injection, schedule: Q01DX009 (ip), vehicle: water 102 % of control | endpoint: mean survival time, dose: 100.0 mg/kg/injection, schedule: Q01DX009 (ip), vehicle: water 95 % of control | endpoint: mean survival time, dose: 200.0 mg/kg/injection, schedule: Q01DX009 (ip), vehicle: water 114 % of control

COc1ccc2c(NCCCCCCNc3c4ccccc4nc4cc(OC)ccc34)c3ccccc3nc2c1
inactive: endpoint: mean survival time, dose: 0.07 mg/kg/injection, schedule: Q01DX009 (ip), vehicle: other 102 % of control | endpoint: mean survival time, dose: 0.15 mg/kg/injection, schedule: Q01DX009 (ip), vehicle: other 102 % of control | endpoint: mean survival time, dose: 0.16 mg/kg/injection, schedule: Q01DX009 (ip), vehicle: lactic acid 124 % of control | endpoint: mean survival time, dose: 0.31 mg/kg/injection, schedule: Q01DX009 (ip), vehicle: lactic acid 110 % of control | endpoint: mean survival time, dose: 0.31 mg/kg/injection, schedule: Q01DX009 (ip), vehicle: other 105 % of control | endpoint: mean survival time, dose: 0.62 mg/kg/injection, schedule: Q01DX009 (ip), vehicle: lactic acid 113 % of control | endpoint: mean survival time, dose: 0.63 mg/kg/injection, schedule: Q01DX009 (ip), vehicle: other 100 % of control | endpoint: mean survival time, dose: 1.25 mg/kg/injection, schedule: Q01DX009 (ip), vehicle: lactic acid 121 % of control and 122 % of control | endpoint: mean survival time, dose: 1.25 mg/kg/injection, schedule: Q01DX009 (ip), vehicle: other 107 % of control | endpoint: mean survival time, dose: 2.5 mg/kg/injection, schedule: Q01DX009 (ip), vehicle: lactic acid 122 % of control | endpoint: mean survival time, dose: 5.0 mg/kg/injection, schedule: Q01DX009 (ip), vehicle: lactic acid 116 % of control | endpoint: mean survival time, dose: 10.0 mg/kg/injection, schedule: Q01DX009 (ip), vehicle: lactic acid 122 % of control

COC(=O)c1cc(C(=O)OC)c(C(=O)OC)cc1C(=O)OC
inactive: [4] 97 % of control | [5] 92 % of control | [6] 89 % of control

C[n+]1cccc(C(=O)c2ccccc2)c1
inactive: endpoint: mean survival time, dose: 75.0 mg/kg/injection, schedule: Q01DX001 (ip), vehicle: other 100 % of control

c1ccc2c(c1)oc1c3ccccc3c3ccccc3c21
inactive: endpoint: median survival time, dose: 25.0 mg/kg/injection, schedule: Q04DX002 (ip), vehicle: saline with Tween-80 110 % of control | endpoint: median survival time, dose: 50.0 mg/kg/injection, schedule: Q04DX002 (ip), vehicle: saline with Tween-80 90 % of control | endpoint: median survival time, dose: 100.0 mg/kg/injection, schedule: Q04DX002 (ip), vehicle: saline with Tween-80 110 % of control | endpoint: median survival time, dose: 200.0 mg/kg/injection, schedule: Q04DX002 (ip), vehicle: saline with Tween-80 110 % of control

CCCCCCCCCc1ccc(OCCOCCOCCOCCOCCOCCOCCCS(=O)(=O)[O-])cc1.CCCCCCCCCc1ccc(OCCOCCOCCOCCOCCOCCOCCCS(=O)(=O)[O-])cc1.NC1CCCCC1N.[Pt+4]
inactive: endpoint: median survival time, dose: 3.12 mg/kg/injection, schedule: Q04DX003 (ip), vehicle: saline with Tween-80 98 % of control | endpoint: median survival time, dose: 6.25 mg/kg/injection, schedule: Q04DX003 (ip), vehicle: saline with Tween-80 98 % of control | endpoint: median survival time, dose: 12.5 mg/kg/injection, schedule: Q04DX003 (ip), vehicle: saline with Tween-80 98 % of control | endpoint: median survival time, dose: 25.0 mg/kg/injection, schedule: Q04DX003 (ip), vehicle: saline with Tween-80 95 % of control | endpoint: median survival time, dose: 50.0 mg/kg/injection, schedule: Q04DX003 (ip), vehicle: saline with Tween-80 97 % of control | endpoint: median survival time, dose: 100.0 mg/kg/injection, schedule: Q04DX003 (ip), vehicle: saline with Tween-80 102 % of control | endpoint: median survival time, dose: 200.0 mg/kg/injection, schedule: Q04DX003 (ip), vehicle: saline with Tween-80 103 % of control

CCOC(CNc1ccc([N+](=O)[O-])cc1)OCC
inactive: endpoint: mean survival time, dose: 100.0 mg/kg/injection, schedule: Q01DX001 (ip), vehicle: saline with Tween-80 95 % of control and 100 % of control | [7] 100 % of control and 106 % of control | [1] 100 % of control | [4] 94 % of control | endpoint: mean survival time, dose: 200.0 mg/kg/injection, schedule: Q01DX001 (ip), vehicle: saline with Tween-80 92 % of control and 97 % of control | [8] 100 % of control and 102 % of control | [2] 98 % of control | [5] 104 % of control | endpoint: mean survival time, dose: 400.0 mg/kg/injection, schedule: Q01DX001 (ip), vehicle: saline with Tween-80 101 % of control and 103 % of control | [9] 120 % of control and 111 % of control | [3] 100 % of control | [6] 96 % of control

Nc1nc(Br)c2ccccc2c1-c1ccc([N+](=O)[O-])cc1
inactive: endpoint: mean survival time, dose: 50.0 mg/kg/injection, schedule: Q04DX003 (ip), vehicle: DMSO 98 % of control | endpoint: mean survival time, dose: 100.0 mg/kg/injection, schedule: Q04DX003 (ip), vehicle: DMSO 96 % of control | endpoint: mean survival time, dose: 200.0 mg/kg/injection, schedule: Q04DX003 (ip), vehicle: DMSO 95 % of control | endpoint: mean survival time, dose: 400.0 mg/kg/injection, schedule: Q04DX003 (ip), vehicle: DMSO 95 % of control

C=C[Si]1(C)O[Si](C)(C=C)O[Si](C)(C=C)O1 (stereo not given)
inactive: endpoint: mean survival time, dose: 50.0 mg/kg/injection, schedule: Q01DX009 (ip), vehicle: saline with Tween-80 93 % of control | [7] 104 % of control | [8] 93 % of control

c1ccc2c(c1)ccc1c(C3CO3)cccc12 (stereo not given)
inactive: endpoint: mean survival time, dose: 100.0 mg/kg/injection, schedule: Q01DX005 (ip), vehicle: saline with Tween-80 103 % of control | [7] 93 % of control | endpoint: mean survival time, dose: 200.0 mg/kg/injection, schedule: Q01DX005 (ip), vehicle: saline with Tween-80 106 % of control | [8] 101 % of control | endpoint: mean survival time, dose: 400.0 mg/kg/injection, schedule: Q01DX005 (ip), vehicle: saline with Tween-80 95 % of control | [9] 101 % of control

Source: PubChem BioAssay AID256 (DTP/NCI, 2004)
